Laboratory results reported in patent publication US20170119835A1, “METHOD OF MAKING AN ADJUNCT TO […] OF RIBOSOMAL FUNCTIONS IN TUMOR CELLS AND PREVENT BODY WEIGHT LOSS DURING CYCLOP[…] THERAPY” (priority 2009, published 2017).

Test system: S-180 cells
From the text: Healthy adult male mice of BALB/c strain (hereinafter, “animals”) weighing between 18 to 22 g were selected randomly. The animals were divided in to six groups. Each animal was identified by color marking. Each cage was identified by a label according to the group. The label contained the name of experiment, number of mice in that cage, dose (mg/kg) and date of initiation and completion of experiment. The groups received treatments for a period of 15 days. On Day 16, samples of blood were withdrawn, under anesthesia, from orbital sinus of the animals. The samples were collected in tubes containing Heparin as an anticoagulant.
Group I was treated as vehicle control and received vehicle (Corn oil) orally, in equal volume as in treatment groups. Group II received only tumor cells (1×10^6 cells) intra-peritoneally. Group III received tumor cells (1×10^6 cells) and cyclophosphamide (150 mg/kg body weight) intra-peritoneally. Group IV and Group V received Tumor cells and BV-3115 at 100 mg/kg body weight and 250 mg/kg body weight respectively.
A group of male mice approximately 7-8 weeks old and weighing between 18-22 gm were used for this study. Animal room temperature & relative humidity were maintained at 22-30 C. and 30-70% respectively. All mice were given free access to purified water (Purified with Aquaguard) & standard pelleted laboratory animal feed. After acclimation period of 7 days, each animal was weighed and then the animals were randomly selected according to body weights and allocated to the different treatment groups, so that mean body weights of groups were not statistically different before starting the experiment. Tumor implantation with S-180 cells 1×10^6 cells I.P. to all groups except group I (sham control no tumor, no drug).

[1] = all treatment groups, Day 16 blood

O=P1(N(CCCl)CCCl)NCCCO1 (stereo not drawn) [cyclophosphamide]
mortality (BALB/c mice, 15 days, cyclophosphamide 150 mg/kg i.p., BV-3115 100 and 250 mg/kg, combination with BV-3115 100 mg/kg): No mortality | body weight compared to Group I (Group III, cyclophosphamide 150 mg/kg i.p., P<0.05): normal weight gain till Day 10, thereafter sudden decrease in weights | body weight on day 15 (S-180 cells 1×106 I.P., vs sham control / tumor group): reduced the body weight alarmingly lower than sham control | platelets compared with Group I (vehicle control) (all treatment groups): comparable to Group I | body weight compared to Group II (tumor cells only) (all treatment groups (III, IV, V and VI)): significant decrease in body weight | RBC count [1]: increased in varying degrees | hemoglobin content [1]: increased in varying degrees | white blood cells compared with Group II (group III (cyclophosphamide) and VI (combination), P<0.05): statistically significant decrease in white blood cells | clinical signs (other groups: cyclophosphamide 150 mg/kg, BV-3115 100 mg/kg, combination): No clinically abnormal signs
